# Assay results published in US10722520B2, “Heterocyclic compounds and their use in preventing or treating bacterial infections” (MUTABILIS, priority 2016, dated 2020).
# Assays:
# [1] = biological target: OXA-48 (Klebsiella pneumoniae, UniProt Q6XEC0); details: read-out: IC50 β-lactamase OXA-48; class (D); nitrocefin 200 μM, 30-min pre-incubation, enzyme 0.3 nM
# [2] = biological target: KPC-2 (Klebsiella pneumoniae, UniProt Q9F663); details: read-out: IC50 β-lactamase KPC-2; class (A); nitrocefin 200 μM, 30-min pre-incubation, enzyme 1 nM
# [3] = biological target: CTX-M-15 (Escherichia coli, UniProt Q9EXV5); details: read-out: IC50 β-lactamase CTX-M-15; class (A); nitrocefin 200 μM, 30-min pre-incubation, enzyme 0.4 nM
# [4] = biological target: AmpC (PAE) (Pseudomonas aeruginosa, UniProt P24735); details: read-out: IC50 β-lactamase AmpC (PAE); class (C); nitrocefin 200 μM, 30-min pre-incubation, enzyme 0.4 nM
# [5] = biological target: OXA-15 (Pseudomonas aeruginosa, UniProt Q51574); details: read-out: IC50 β-lactamase OXA-15; class (D); nitrocefin 200 μM, 30-min pre-incubation, enzyme 0.4 nM
# [6] = biological target: AmpC (P99) (Enterobacter cloacae, UniProt P05364); details: read-out: IC50 β-lactamase AmpC (P99); class (C); nitrocefin 200 μM, 30-min pre-incubation, enzyme 0.2 nM
# [7] = biological target: SHV-1 (Klebsiella pneumoniae, UniProt P0AD64); details: read-out: IC50 β-lactamase SHV-1; class (A); nitrocefin 200 μM, 30-min pre-incubation, enzyme 0.075 nM
# [8] = biological target: OXA-1 (Escherichia coli, UniProt P13661); details: read-out: IC50 β-lactamase OXA-1; class (D); nitrocefin 200 μM, 30-min pre-incubation, enzyme 0.2 nM
# [9] = biological target: OXA-11 (Pseudomonas aeruginosa, UniProt Q06778); details: read-out: IC50 β-lactamase OXA-11; class (D); nitrocefin 200 μM, 30-min pre-incubation, enzyme 1.2 nM
# [10] = biological target: CMY-37 (Citrobacter freundii, UniProt P05193); details: read-out: IC50 β-lactamase CMY-37; class (C); nitrocefin 200 μM, 30-min pre-incubation, enzyme 0.2 nM
# [11] = biological target: TEM-1 (Escherichia coli, UniProt P62593); details: read-out: IC50 β-lactamase TEM-1; class (A); nitrocefin 200 μM, 30-min pre-incubation, enzyme 0.1 nM
# [12] = system: E. coli 190317; assay: MIC of compound alone, broth microdilution; type: cell-based; details: strain 190317; compound alone
# Outline: (§1)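 Visual end point: lowest concentration that blocked growth. Conditions: cation-adjusted Mueller-Hinton broth, 5×10^5 cfu/mL final inoculum of log-phase bacteria, 16-20 h, 35° C, ambient atmosphere.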
# [13] = system: E. cloacae P99; assay: MIC of compound alone, broth microdilution; type: cell-based; details: strain P99; compound alone
# Outline: as §1
# [14] = system: P. aeruginosa CIP107051; assay: MIC of compound alone, broth microdilution; type: cell-based; details: strain CIP107051; compound alone
# Outline: as §1
# [15] = system: K. pneumoniae 6299; assay: MIC of compound alone, broth microdilution; type: cell-based; details: strain 6299; compound alone
# Outline: as §1
# [16] = system: K. pneumoniae BAA-1898; assay: MIC of compound alone, broth microdilution; type: cell-based; details: strain BAA-1898; compound alone
# Outline: as §1
# [17] = system: E. coli 190317; assay: MIC of ceftazidime (CAZ) at fixed concentration of compound (synergy), broth microdilution; type: cell-based; details: strain 190317; MIC of CAZ, compound fixed at 4 μg/mL
# Procedure: (§2) Log phase bacterial suspensions were adjusted to a final density of 5×10^5 cfu/mL in cation-adjusted Mueller-Hinton broth (Becton-Dickinson) and added to each well (98 μL). Microplates were incubated for 16-20 h at 35° C. in ambient air. The MIC of the compounds was defined as the lowest concentration of said compounds that prevented bacterial growth as read by visual inspection.
# [18] = system: E. cloacae P99; assay: as above; type: cell-based; details: strain P99; MIC of CAZ, compound fixed at 4 μg/mL
# Procedure: as §2
# [19] = system: P. aeruginosa CIP107051; assay: as above; type: cell-based; details: strain CIP107051; MIC of CAZ, compound fixed at 4 μg/mL
# Procedure: as §2
# [20] = system: K. pneumoniae 6299; assay: as above; type: cell-based; details: strain 6299; MIC of CAZ, compound fixed at 4 μg/mL
# Procedure: as §2
# [21] = system: K. pneumoniae BAA-1898; assay: as above; type: cell-based; details: strain BAA-1898; MIC of CAZ, compound fixed at 4 μg/mL
# Procedure: as §2
Compound,IC50 [1] [nM],IC50 [2] [nM],IC50 [3] [nM],IC50 [4] [nM],IC50 [5] [nM],IC50 [6] [nM],IC50 [7] [nM],IC50 [8] [nM],IC50 [9] [nM],IC50 [10] [nM],IC50 [11] [nM],MIC compounds of the invention alone [12] [µg/mL],MIC compounds of the invention alone [13] [µg/mL],MIC compounds of the invention alone [14] [µg/mL],MIC compounds of the invention alone [15] [µg/mL],MIC compounds of the invention alone [16] [µg/mL],MIC combination of CAZ and compounds of the invention at 4 μg/mL [17] [µg/mL],MIC combination of CAZ and compounds of the invention at 4 μg/mL [18] [µg/mL],MIC combination of CAZ and compounds of the invention at 4 μg/mL [19] [µg/mL],MIC combination of CAZ and compounds of the invention at 4 μg/mL [20] [µg/mL],also measured
"NCc1cnn(C2=CC3CN(C2)C(=O)N3OS(=O)(=O)[O-])c1.O=C(O)C(F)(F)F.[Na+] (stereo not drawn) [Example 15, sodium and 2,2,2-trifluoroacetate [3-(4-methyleneammoniumpyrazol-1-yl)-7-oxo-1,6-diazabicyclo[3.2.1]oct-3-en-6-yl]sulfate]",18,120,1.5,360,49,80,6.5,700,270,76,0.79,2,8,16,>32,>32,<0.25,≤0.25,2,0.25,MIC combination of CAZ and compounds of the invention at 4 μg/mL [21]: ≤0.25 µg/mL
"N#Cc1ccn(C2=CC3CN(C2)C(=O)N3OS(=O)(=O)[O-])n1.[Na+] (stereo not drawn) [Example 17, sodium [3-(3-carbonitrilepyrazol-1-yl)-7-oxo-1,6-diazabicyclo[3.2.1]oct-3-en-6-yl]sulfate]",5.8,3.7,0.76,280,30,30,1,100,63,87,0.23,4,16,>32,>32,16,<0.25,1,8,0.25,MIC combination of CAZ and compounds of the invention at 4 μg/mL [21]: 0.25 µg/mL
O=C1N2CC(n3cc(N4CCOCC4)cn3)=CC(C2)N1OS(=O)(=O)[O-].[Na+] (stereo not drawn) [Example 20],68,120,3,910,140,230,5.1,6200,7100,140,1.3,>32,>32,>32,>32,>32,128,>128,>128,>128,MIC combination of CAZ and compounds of the invention at 4 μg/mL [21]: >128 µg/mL
